Data as given in patent US20190307741A1, “[…] PD1 AND/OR PDL1 INHIBITOR AS PHARMACEUTICAL COMBINATION” (priority 2016, published 2019).

Tested on: orthotopic MBT-2 mouse bladder tumors
Assay: Antitumour activity (survival) in C3H/HEJ mice bearing orthotopic MBT-2 mouse bladder tumors
Assay type: in vivo
Conditions: female C3H/HeJ mice, vinflunine ditartrate 12 mg/kg IP (Q2D×3)×2W
Experimental: The antitumour activity of vinflunine alone or in combination with an anti-PD1 antibody was evaluated in C3H/HEJ mice bearing orthotopic MBT-2 mouse bladder tumors.
Vinflunine ditartrate is administered to mice at a concentration of 1.2 mg/ml in a saline buffer (0.9% NaCl).
The anti-PD1 antibody (clone: RMP1-14, catalog: BE0146, B/N: 5311-10/0914B, Bioxcell), is administered to mice at a concentration of 1 mg/ml in PBS. […] 2005 Aug. 1; 175(3):1586-92.
Vinflunine ditartrate has been injected at 12 mg/kg,
The anti-PD1 antibody has been injected at 10 mg/kg/inj.
Vinflunine ditartrate and the anti-PD1 antibody have been administered at a dose volume of 10 ml/kg/adm (i.e for one mouse weighing 20 g, 200 μl has been administered).
Vinflunine ditartrate has been injected intraperitoneally (IP) into the peritoneal cavity of mice.
The anti-PD-1 antibody has been injected intraperitoneally (IP) into the peritoneal cavity of mice. […]
Tumor cells have been e grown as monolayer at 37° C. in a humidified atmosphere (5% CO2, 95% air). […] The cells have been counted in a hemocytometer and their viability has been assessed by 0.25% trypan blue exclusion assay. […]
Antitumour activity of vinflunine ditartrate alone, anti-PD1 antibody alone or of the combination was evaluated against MBT-2 cells orthotopically implanted by instillation C3H/HEJ mice. […]

20′,20′-difluoro-3′,4′-dihydrovinorelbine [vinflunine]
ILS: Increase of Life Span (compared to vehicle) (%) (ILS=T/C−100 (median day of death treated/control), anti-PD1 10 mg/kg/inj IP TW×2): 46%
Survival gain (compared to vehicle) Median (anti-PD1 antibody 10 mg/kg/inj IP TW×2, treatment from D3, relative to vehicle): 10 days
